Reference: US20130150377A1, “Tetrahydropyridinyl and Dihydropyrrolyl Compounds and the Use Thereof” (SHIONOGI & CO., LTD., priority 2008, published 2013)
pIC50: −log10 of the molar value.

Biological target: T1, N-type calcium channel (NTCC) (Homo sapiens, UniProt Q00975)
T1 construct: endogenous in cells; host or cells: differentiated IMR32 cells (ATCC)
Assay: FLIPR calcium mobilization assay for N-type calcium channel (differentiated IMR32 cells)
Assay type: cell-based
Details: N-type calcium channel blockers, calcium mobilization in vitro assay
Procedure: Cell maintenance and differentiation. Unless noted otherwise, cell culture reagents were purchased from Mediatech of Herndon, Md. IMR32 cells (American Type Culture Collection, ATCC, Manassas, Va.) were routinely cultured in growth medium consisting of minimum essential medium containing 10% fetal bovine serum (FBS, Hyclone, Logan, Utah), 100 U/mL penicillin, 100 μg/mL streptomycin, 2 mM L-glutamine, 1 mM sodium pyruvate, and 1×MEM non-essential amino acids. 80-90% confluent flasks of cells were differentiated using the following differentiation medium: Growth medium plus 1 mM dibutyryl cyclic AMP (Sigma, St. Louis, Mo.), and 2.5 μM bromodeoxyuridine (Sigma). Cells were differentiated for 8 days by replacing differentiation medium every 2-3 days.
FLIPR Calcium Mobilization Assay for N-type Calcium Channel.
One day prior to performing this assay, differentiated IMR32 cells were treated with 1× CellStripper, and seeded on poly-D-lysine-coated 96-well clear-bottom black plates (Becton Dickinson, Franklin Lakes, N.J.) at 200,000 cells/well. On the day of the assay, the cell plates were washed with IMR32 buffer (127 mM NaCl, 1 mM KCl, 2 mM MgCl2, 700 μM NaH2PO4, 5 mM CaCl2, 5 mM NaHCO3, 8 mM HEPES, 10 mM glucose, pH 7.4), then pre-stimulated with KCl and loaded as follows: […] of IMR32 buffer, 0.05 mL of each compound tested diluted in IMR32 buffer containing 20 μM nitrendipine (Sigma), and 0.1 mL KCl dissolved in IMR32 buffer, plus Fluo-4 were added (3 μM final concentration, Molecular Probes, Eugene, Oreg.). Final test compound concentrations ranged from about 846 pM to about 17 μM, final nitrendipine concentration was 5 μM, and final KCl concentration was 90 mM. After 1 hour, the cells were washed twice with 0.05 mL of each compound tested in nitrendipine-containing IMR32 buffer (no KCl or Fluo-4), and then replaced with 0.1 mL of each compound tested in nitrendipine-containing IMR32 buffer. Plates were then transferred to a Fluorimetric Imaging Plate Reader (FLIPR^96, Molecular Devices, Inc., Sunnyvale, Calif.) for assay. The FLIPR measured basal Fluo-4 fluorescence for 315 seconds (i.e., 5 minutes and 15 seconds), then added 0.1 mL KCl agonist dissolved in IMR32 buffer and measured fluorescence for another 45 seconds. Final test compound concentrations on the cells after FLIPR read ranged from about 846 pM to about 17 μM, final nitrendipine concentration was 5 μM, and final KCl concentration was 90 mM. Data were collected over the entire time course and analyzed using Excel, Graph Pad Prism (version 3.02, Graph Pad, San Diego, Calif.), or an in-house non-linear regression analysis software.

T1 sequence (Q00975 whole entry): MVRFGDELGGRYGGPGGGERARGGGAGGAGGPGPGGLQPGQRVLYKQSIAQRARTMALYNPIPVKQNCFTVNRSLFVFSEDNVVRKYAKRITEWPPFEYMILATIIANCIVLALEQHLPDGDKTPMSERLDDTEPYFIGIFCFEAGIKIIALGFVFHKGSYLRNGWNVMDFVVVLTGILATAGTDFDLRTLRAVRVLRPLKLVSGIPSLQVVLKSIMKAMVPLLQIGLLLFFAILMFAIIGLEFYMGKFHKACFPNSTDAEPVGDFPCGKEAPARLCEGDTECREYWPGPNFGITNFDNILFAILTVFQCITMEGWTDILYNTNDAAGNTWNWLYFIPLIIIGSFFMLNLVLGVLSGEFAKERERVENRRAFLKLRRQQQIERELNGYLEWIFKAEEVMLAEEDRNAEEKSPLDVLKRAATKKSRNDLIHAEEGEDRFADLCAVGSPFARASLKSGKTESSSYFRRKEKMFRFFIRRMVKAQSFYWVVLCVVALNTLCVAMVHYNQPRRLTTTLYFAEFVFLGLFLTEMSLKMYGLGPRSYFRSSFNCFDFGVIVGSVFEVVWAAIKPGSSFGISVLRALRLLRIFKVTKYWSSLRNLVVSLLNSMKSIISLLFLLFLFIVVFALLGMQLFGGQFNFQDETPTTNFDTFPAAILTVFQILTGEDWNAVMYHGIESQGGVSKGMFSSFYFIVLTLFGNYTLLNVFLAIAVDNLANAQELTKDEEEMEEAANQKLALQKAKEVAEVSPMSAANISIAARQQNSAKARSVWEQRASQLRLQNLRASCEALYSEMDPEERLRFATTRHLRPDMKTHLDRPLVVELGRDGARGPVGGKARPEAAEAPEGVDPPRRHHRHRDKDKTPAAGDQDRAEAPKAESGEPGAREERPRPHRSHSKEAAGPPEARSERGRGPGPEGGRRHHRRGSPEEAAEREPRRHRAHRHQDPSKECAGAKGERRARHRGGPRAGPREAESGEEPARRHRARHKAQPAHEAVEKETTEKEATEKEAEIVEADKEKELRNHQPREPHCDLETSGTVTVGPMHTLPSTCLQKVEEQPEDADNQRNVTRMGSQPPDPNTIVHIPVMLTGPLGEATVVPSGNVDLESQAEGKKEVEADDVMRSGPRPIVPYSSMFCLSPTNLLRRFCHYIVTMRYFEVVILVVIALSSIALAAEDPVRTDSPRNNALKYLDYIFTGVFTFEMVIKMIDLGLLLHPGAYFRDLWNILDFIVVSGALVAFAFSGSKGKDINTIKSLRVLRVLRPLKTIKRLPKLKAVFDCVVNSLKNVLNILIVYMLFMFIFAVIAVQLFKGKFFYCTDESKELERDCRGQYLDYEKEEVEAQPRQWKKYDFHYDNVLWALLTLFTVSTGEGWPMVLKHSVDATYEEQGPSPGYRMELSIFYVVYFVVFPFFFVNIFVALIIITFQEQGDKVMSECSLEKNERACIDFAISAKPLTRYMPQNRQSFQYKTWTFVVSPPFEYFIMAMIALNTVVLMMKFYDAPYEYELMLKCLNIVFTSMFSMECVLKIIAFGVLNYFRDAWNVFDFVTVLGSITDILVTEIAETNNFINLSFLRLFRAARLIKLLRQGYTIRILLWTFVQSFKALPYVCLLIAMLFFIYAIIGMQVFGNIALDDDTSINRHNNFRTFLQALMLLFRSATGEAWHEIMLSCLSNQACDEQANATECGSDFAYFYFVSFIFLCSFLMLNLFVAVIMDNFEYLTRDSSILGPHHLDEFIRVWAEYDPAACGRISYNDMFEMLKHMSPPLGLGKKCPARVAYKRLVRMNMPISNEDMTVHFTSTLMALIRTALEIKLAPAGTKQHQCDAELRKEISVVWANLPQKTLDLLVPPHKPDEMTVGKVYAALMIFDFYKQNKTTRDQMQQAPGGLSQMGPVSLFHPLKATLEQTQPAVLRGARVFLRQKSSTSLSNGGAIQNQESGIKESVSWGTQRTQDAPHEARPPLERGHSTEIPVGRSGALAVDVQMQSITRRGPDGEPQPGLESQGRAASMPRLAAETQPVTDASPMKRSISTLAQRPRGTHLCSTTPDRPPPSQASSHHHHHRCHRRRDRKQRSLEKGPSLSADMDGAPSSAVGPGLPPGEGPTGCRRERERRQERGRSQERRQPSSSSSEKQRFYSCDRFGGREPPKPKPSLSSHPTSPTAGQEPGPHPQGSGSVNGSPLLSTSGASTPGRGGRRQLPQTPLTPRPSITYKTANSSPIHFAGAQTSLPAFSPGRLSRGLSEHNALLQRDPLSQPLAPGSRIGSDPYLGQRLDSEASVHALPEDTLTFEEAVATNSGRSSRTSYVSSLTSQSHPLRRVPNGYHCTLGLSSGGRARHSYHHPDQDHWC
T1 sequence (P54289 25-956 partner limits assumed): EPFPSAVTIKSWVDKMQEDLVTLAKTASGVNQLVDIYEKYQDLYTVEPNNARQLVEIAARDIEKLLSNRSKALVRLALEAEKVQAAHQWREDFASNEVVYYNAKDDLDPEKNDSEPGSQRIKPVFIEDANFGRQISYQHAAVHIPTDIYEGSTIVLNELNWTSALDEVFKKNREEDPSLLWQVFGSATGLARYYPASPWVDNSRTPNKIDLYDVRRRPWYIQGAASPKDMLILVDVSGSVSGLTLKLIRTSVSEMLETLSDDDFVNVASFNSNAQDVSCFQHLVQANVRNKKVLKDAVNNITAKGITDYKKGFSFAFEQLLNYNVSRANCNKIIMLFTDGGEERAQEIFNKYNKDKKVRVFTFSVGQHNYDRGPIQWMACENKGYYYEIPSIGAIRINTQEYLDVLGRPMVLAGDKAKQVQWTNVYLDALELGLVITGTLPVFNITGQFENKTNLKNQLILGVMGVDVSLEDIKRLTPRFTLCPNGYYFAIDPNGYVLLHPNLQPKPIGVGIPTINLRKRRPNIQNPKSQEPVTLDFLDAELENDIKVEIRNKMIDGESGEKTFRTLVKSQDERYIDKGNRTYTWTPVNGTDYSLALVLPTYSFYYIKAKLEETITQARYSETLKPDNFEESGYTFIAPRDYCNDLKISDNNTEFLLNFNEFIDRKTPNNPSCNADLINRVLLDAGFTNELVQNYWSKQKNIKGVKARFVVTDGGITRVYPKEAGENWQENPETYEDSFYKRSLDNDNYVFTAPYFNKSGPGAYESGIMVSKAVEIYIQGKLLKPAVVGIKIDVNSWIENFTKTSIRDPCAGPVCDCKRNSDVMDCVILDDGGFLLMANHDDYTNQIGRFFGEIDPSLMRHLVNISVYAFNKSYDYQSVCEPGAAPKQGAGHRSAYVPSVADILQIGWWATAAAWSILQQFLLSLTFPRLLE
T1 sequence (P54289 957-1103 partner limits assumed): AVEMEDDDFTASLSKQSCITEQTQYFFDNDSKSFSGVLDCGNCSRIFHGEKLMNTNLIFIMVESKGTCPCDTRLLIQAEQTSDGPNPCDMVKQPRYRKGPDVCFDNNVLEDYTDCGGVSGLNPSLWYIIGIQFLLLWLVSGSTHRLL
T1 sequence (P54284 whole entry partner): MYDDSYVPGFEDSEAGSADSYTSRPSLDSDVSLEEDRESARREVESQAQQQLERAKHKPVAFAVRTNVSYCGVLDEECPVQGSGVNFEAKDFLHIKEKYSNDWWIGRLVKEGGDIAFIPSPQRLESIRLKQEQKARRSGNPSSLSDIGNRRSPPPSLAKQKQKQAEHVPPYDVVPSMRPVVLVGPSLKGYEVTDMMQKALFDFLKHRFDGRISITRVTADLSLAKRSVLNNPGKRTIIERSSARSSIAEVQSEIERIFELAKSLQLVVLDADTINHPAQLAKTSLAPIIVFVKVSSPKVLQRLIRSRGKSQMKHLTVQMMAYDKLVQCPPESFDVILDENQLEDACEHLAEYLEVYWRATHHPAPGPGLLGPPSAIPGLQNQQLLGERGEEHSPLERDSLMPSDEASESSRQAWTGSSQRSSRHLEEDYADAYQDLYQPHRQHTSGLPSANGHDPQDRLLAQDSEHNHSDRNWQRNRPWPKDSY

pIC50	Compound
6.00	O=C(NC1CC1)c1cccc(C2=CCN(S(=O)(=O)c3c(F)cc(F)cc3F)CC2)n1 [1′-(2,4,6-Trifluorobenzenesulfonyl)-1′,2′,3′,6′-tetrahydro-[2,4′]bipyridinyl-6-carboxylic acid cyclopropylamide]
6.72	O=C(NC1CC1)c1cccc(C2=CCN(S(=O)(=O)c3ccc(Cl)cc3Cl)CC2)n1 [1′-(2,4-Dichlorobenzenesulfonyl)-1′,2′,3′,6′-tetrahydro-[2,4′]bipyridinyl-6-carboxylic acid cyclopropylamide]
5.84	CC(C)CS(=O)(=O)N1CC=C(c2cccc(C(=O)NC3CC3)n2)CC1 [1′-(2-Methylprop-1-ylsulfonyl)-1′,2′,3′,6′-tetrahydro-[2,4′]bipyridinyl-6-carboxylic acid cyclopropylamide]
7.10	O=C(NC1CC1)c1cccc(C2=CCN(S(=O)(=O)c3ccccc3C(F)(F)F)CC2)n1 [1′-(2-Trifluoromethylbenzenesulfonyl)-1′,2′,3′,6′-tetrahydro-[2,4′]bipyridinyl-6-carboxylic acid cyclopropylamide]
5.51	O=C(NC1CC1)c1cccc(C2=CCN(S(=O)(=O)CCC(F)(F)F)CC2)n1 [1′-(3,3,3-Trifluoropropylsulfonyl)-1′,2′,3′,6′-tetrahydro-[2,4′]bipyridinyl-6-carboxylic acid cyclopropylamide]
7.30	O=C(NC1CC1)c1cccc(C2=CCN(S(=O)(=O)c3cc(Cl)cc(Cl)c3)CC2)n1 [1′-(3,5-Dichlorobenzenesulfonyl)-1′,2′,3′,6′-tetrahydro-[2,4′]bipyridinyl-6-carboxylic acid cyclopropylamide]
7.10	O=C(NC1CC1)c1cccc(C2=CCN(S(=O)(=O)c3cccc(Cl)c3)CC2)n1 [1′-(3-Chlorobenzenesulfonyl)-1′,2′,3′,6′-tetrahydro-[2,4′]bipyridinyl-6-carboxylic acid cyclopropylamide]
6.11	N#Cc1cc(S(=O)(=O)N2CC=C(c3cccc(C(=O)NC4CC4)n3)CC2)ccc1F [1′-(3-Cyano-4-fluorobenzenesulfonyl)-1′,2′,3′,6′-tetrahydro-[2,4′]bipyridinyl-6-carboxylic acid cyclopropylamide]
7.30	N#Cc1cccc(S(=O)(=O)N2CC=C(c3cccc(C(=O)NC4CC4)n3)CC2)c1 [1′-(3-Cyanobenzenesulfonyl)-1′,2′,3′,6′-tetrahydro-[2,4′]bipyridinyl-6-carboxylic acid cyclopropylamide]
7.40	O=C(NC1CC1)c1cccc(C2=CCN(S(=O)(=O)c3cccc(OC(F)(F)F)c3)CC2)n1 [1′-(3-Trifluoromethoxybenzenesulfonyl)-1′,2′,3′,6′-tetrahydro-[2,4′]bipyridinyl-6-carboxylic acid cyclopropylamide]
5.37	O=S(=O)(c1cccc(C(F)(F)F)c1)N1CC=C(c2cccc(CO)n2)CC1 [1′-(3-Trifluoromethylbenzenesulfonyl)-1′,2′,3′,6′--tetrahydro-[2,4′]bipyridinyl-6-yl]methanol]
7.52	O=C(NCC(F)(F)F)c1cccc(C2=CCN(S(=O)(=O)c3cccc(C(F)(F)F)c3)CC2)n1 [1′-(3-Trifluoromethylbenzenesulfonyl)-1′,2′,3′,6′-tetrahydro-[2,4′]-bipyridinyl-6-carboxylic acid 2,2,2-trifluoroethylamide]
7.30	O=C(NCCC(F)(F)F)c1cccc(C2=CCN(S(=O)(=O)c3cccc(C(F)(F)F)c3)CC2)n1 [1′-(3-Trifluoromethylbenzenesulfonyl)-1′,2′,3′,6′-tetrahydro-[2,4′]-bipyridinyl-6-carboxylic acid 3,3,3-trifluoropropylamide]
7.05	O=C(NC(CO)CO)c1cccc(C2=CCN(S(=O)(=O)c3cccc(C(F)(F)F)c3)CC2)n1 [1′-(3-Trifluoromethylbenzenesulfonyl)-1′,2′,3′,6′-tetrahydro-[2,4′]bipyridinyl-6-carboxylic acid 1,3-dihydroxyprop-2-ylamide]
